Measured values published in patent publication US20020009509A1, “Soya extract containing lipids, process for its production, and pharmaceutical and cosmetic composition” (priority 1999, published 2002).

Tested on: dry skin
Experiment: Skin hydration of dry skin measured as electric capacitance of the horny layer (Corneometer CM 820)
Format: in vivo
Conditions: 1.5% extract solution or 2% collagen
Protocol: The treatment according to the invention was with an emulsion, in water, containing the extract according to the invention and 2% hydroxyethylcellulose. Skin hydration was measured as electric capacitance of the horny layer using a commercially available device (Corneometer CM 820, Courage+ Kazaka, Cologne, Germany). The mean value of five consecutive measurements was determined and recorded as the measured value. The electric capacitance is expressed by means of an arbitrary scale ranging from 0 to 100 units. Groups of 10 subjects were used.

## collagen
60 min after treatment, arbitrary scale 0 to 100 units, groups of 10 subjects, *P < 0.05, **P < 0.001
  Hydration (units), After 60 min: 57.7 ± 0.1* units
After 60 min versus starting value
  Hydration, Change %: 35.6%
Before treatment, arbitrary scale 0 to 100 units, groups of 10 subjects
  Hydration (units), Starting value: 42.7 ± 0.4 units
